Where two headings read alike, the source gives them in different places.
Assays:
HDAC7 = molecular target: T1, HDAC7 (Homo sapiens, UniProt Q8WUI4); assay: HDAC biochemical activity measurement (fluorescent substrate deacetylation);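 as to all read-outs here: fluorogenic deacetylation assay using acetyl-lysine substrate at 20 µM, enzyme and compound incubated 30 min at 37 °C, then developer added, fluorescence read at 360/460 nm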; conditions: for IC50 HDAC7: 37° C. 30 minutes
T1 sequence (Q8WUI4 1-952): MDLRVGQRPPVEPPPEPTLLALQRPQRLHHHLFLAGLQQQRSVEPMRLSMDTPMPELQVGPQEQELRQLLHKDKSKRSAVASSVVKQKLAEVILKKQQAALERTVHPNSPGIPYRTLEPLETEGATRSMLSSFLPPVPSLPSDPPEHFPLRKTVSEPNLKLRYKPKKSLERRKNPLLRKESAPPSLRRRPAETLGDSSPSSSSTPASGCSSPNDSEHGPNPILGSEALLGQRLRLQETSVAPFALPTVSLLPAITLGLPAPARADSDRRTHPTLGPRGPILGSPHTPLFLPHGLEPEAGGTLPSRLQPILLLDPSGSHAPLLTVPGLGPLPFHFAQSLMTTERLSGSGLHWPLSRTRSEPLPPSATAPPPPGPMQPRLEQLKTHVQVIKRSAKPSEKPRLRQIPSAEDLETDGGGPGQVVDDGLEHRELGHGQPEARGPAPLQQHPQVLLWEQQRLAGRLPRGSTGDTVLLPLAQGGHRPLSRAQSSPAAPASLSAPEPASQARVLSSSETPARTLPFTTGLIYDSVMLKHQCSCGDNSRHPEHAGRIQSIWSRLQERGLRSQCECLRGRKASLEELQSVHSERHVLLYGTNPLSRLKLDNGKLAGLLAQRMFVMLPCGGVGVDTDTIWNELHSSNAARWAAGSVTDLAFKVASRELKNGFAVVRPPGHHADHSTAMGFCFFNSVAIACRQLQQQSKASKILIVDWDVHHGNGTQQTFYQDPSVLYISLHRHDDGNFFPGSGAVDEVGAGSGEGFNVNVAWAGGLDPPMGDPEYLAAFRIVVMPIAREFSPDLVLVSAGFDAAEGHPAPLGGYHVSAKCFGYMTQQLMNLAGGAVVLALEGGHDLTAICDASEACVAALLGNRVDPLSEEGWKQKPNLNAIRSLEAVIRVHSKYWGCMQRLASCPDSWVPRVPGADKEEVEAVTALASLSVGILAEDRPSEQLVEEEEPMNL

[1] = test system: Bel-7402 (human hepatoma cells); assay: MTT cancer cell growth inhibition; type: cell-based; conditions: Homo sapiens, Bel-7402, 72 h, MTT, 72 hours incubation, Bel-7402 cells; read-out: GI50 Bel-7402
From the text: (§1) MTT assay principle is yellow MTT can penetrate membrane into the cell, succinic dehydrogenase of the mitochondria in living cells can make exogenous MTT reduction of insoluble in water of blue-violet acicular formazan for crystallization and deposition in the cell, crystallization can be dissolved dimethyl sulfoxide (DMSO) solution, detected its absorbance at 490 nm/570 nm wavelength by enzyme-linked immunosorbent assay, which can reflect the number of cells.
(§2) Using DMEM+10% FBS culture medium or using 1640+10% FBS culture, respectively.
(§3) a) Cells were seeded in 96-well plates with the inoculation of 1500/well, 190 μl/hole, 37° C., 5% of CO2 incubator overnight;
(§4) b) The next day each well was added 10 μl of different drugs. The final concentration of drug was 10^−5˜10^−10M, three parallel holes; 37° C., 5% CO2 culture incubator for 72 hours incubation;
(§5) c) Per well was added 20 μl 5 mg/ml of MTT, 37° C., 5% CO2 culture incubator for 4 hours incubation;
(§6) d) The supernatant was discarded. Each well was added 100 μl of DMSO and oscillation;
(§7) e) 570 nm readings. Calculate cell viability. GI50 calculation based on the results.

[2] = test system: MDA-MB-231 (breast cancer cells); assay: MTT cancer cell growth inhibition; type: cell-based; conditions: Homo sapiens, MDA-MB-231, 72 h, read-out: GI50 MDA-MB-231, MTT, 72 hours incubation, MDA-MB-231 cells
From the text: as §1, §2, §3, §4, §5, §6, §7

[3] = test system: K562 (human leukemia cells); assay: MTT cancer cell growth inhibition; type: cell-based; conditions: Homo sapiens, K562, 72 h, MTT, 72 hours incubation, K562 cells; read-out: GI50 K562
From the text: as §1, §2, §3, §4, §5, §6, §7

[4] = test system: MOLT-4 (human acute lymphoblastic leukemia cells); assay: MTT cancer cell growth inhibition; type: cell-based; conditions: Homo sapiens, MOLT-4, 72 h, MTT, 72 hours incubation, read-out: GI50 Mol
From the text: as §1, §2, §3, §4, §5, §6, §7

[5] = test system: Hela (human cervical cancer cells); assay: MTT cancer cell growth inhibition; type: cell-based; conditions: Homo sapiens, HeLa, 72 h, MTT, 72 hours incubation, read-out: GI50 Hela
From the text: as §1, §2, §3, §4, §5, §6, §7

[6] = test system: U937 (human leukemia cells); assay: MTT cancer cell growth inhibition; type: cell-based; conditions: Homo sapiens, U-937, 72 h, MTT, 72 hours incubation, read-out: GI50 U93
From the text: as §1, §2, §3, §4, §5, §6, §7

[7] = test system: HCC827 (human non-small cell lung cancer cells); assay: MTT cancer cell growth inhibition; type: cell-based; conditions: Homo sapiens, HCC827, 72 h, MTT, 72 hours incubation, HCC827 cells; read-out: GI50 HCC827
From the text: as §1, §2, §3, §4, §5, §6, §7

[8] = test system: H1975 (non-small cell lung adenocarcinoma); assay: MTT cancer cell growth inhibition; type: cell-based; conditions: Homo sapiens, NCI-H1975, 72 h, MTT, 72 hours incubation, H1975 cells; read-out: GI50 H1975
From the text: as §1, §2, §3, §4, §5, §6, §7

[9] = test system: SGC-7901 (human gastric cancer cells); assay: MTT cancer cell growth inhibition; type: cell-based; conditions: Homo sapiens, SGC-7901, 72 h, MTT, 72 hours incubation, SGC-7901 cells; read-out: GI50 SGC-7901
From the text: as §1, §2, §3, §4, §5, §6, §7

[10] = test system: BGC-823 (human gastric cancer cells); assay: MTT cancer cell growth inhibition; type: cell-based; conditions: Homo sapiens, BGC-823, 72 h, MTT, 72 hours incubation, read-out: GI50 BG
From the text: as §1, §2, §3, §4, §5, §6, §7

[11] = test system: PANC-1 (Pac-1, human pancreatic cancer cells); assay: MTT cancer cell growth inhibition; type: cell-based; conditions: Homo sapiens, PANC-1, 72 h, MTT, 72 hours incubation, read-out: GI50 PAN
From the text: as §1, §2, §3, §4, §5, §6, §7

[12] = test system: KBM5-T315I (human chronic myelogenous leukemia); assay: MTT cancer cell growth inhibition; type: cell-based; conditions: Homo sapiens, 72 h, MTT, 72 hours incubation, KBM5-T315I cells; read-out: GI50 KBM5-T315I
From the text: as §1, §2, §3, §4, §5, §6, §7

[13] = test system: A549 (human lung cancer cells); assay: MTT cancer cell growth inhibition; type: cell-based; conditions: Homo sapiens, A549, 72 h, MTT, 72 hours incubation, read-out: GI50 A54
From the text: as §1, §2, §3, §4, §5, §6, §7

[14] = test system: DU145 (human prostate cancer cells); assay: MTT cancer cell growth inhibition; type: cell-based; conditions: Homo sapiens, DU-145, 72 h, MTT, 72 hours incubation, read-out: GI50 Du1
From the text: as §1, §2, §3, §4, §5, §6, §7

[15] = test system: N-87 (human gastric cancer cells); assay: MTT cancer cell growth inhibition; type: cell-based; conditions: Homo sapiens, 72 h, MTT, 72 hours incubation, N-87 cells; read-out: GI50 N-87
From the text: as §1, §2, §3, §4, §5, §6, §7

[16] = test system: MCF-7 (human breast cancer cells); assay: MTT cancer cell growth inhibition; type: cell-based; conditions: Homo sapiens, MCF7, 72 h, 72 hours incubation, read-out: GI50 MCF
From the text: as §1, §2, §3, §4, §5, §6, §7

[17] = test system: Huh-7 (human hepatoma cells); assay: MTT cancer cell growth inhibition; type: cell-based; conditions: Homo sapiens, Huh-7, 72 h, MTT, 72 hours incubation, Huh-7 cells; read-out: GI50 Huh-7
From the text: as §1, §2, §3, §4, §5, §6, §7

[18] = test system: lncap (prostate cancer cells); assay: MTT cancer cell growth inhibition; type: cell-based; conditions: Homo sapiens, LNCaP, 72 h, MTT, 72 hours incubation, read-out: GI50 lnca
From the text: as §1, §2, §3, §4, §5, §6, §7

[19] = test system: KBM-5 (human chronic myelogenous leukemia); assay: MTT cancer cell growth inhibition; type: cell-based; conditions: Homo sapiens, KBM5, 72 h, MTT, 72 hours incubation, KBM-5 cells; read-out: GI50 KBM-5
From the text: as §1, §2, §3, §4, §5, §6, §7

[20] = test system: HT1080 (human fibrosarcoma cells); assay: MTT cancer cell growth inhibition; type: cell-based; conditions: Homo sapiens, HT-1080, 72 h, MTT, 72 hours incubation, read-out: GI50 HT1
From the text: as §1, §2, §3, §4, §5, §6, §7

| IC50 HDAC7 (HDAC7) | GI50 [1] | GI50 [2] | GI50 [3] | GI50 [7] | GI50 [8] | GI50 [9] | GI50 [12] | GI50 [15] | GI50 [17] | GI50 [19] | GI50 ([4]; MOLT-4 cells) | GI50 ([5]; Hela cells) | GI50 ([6]; U937 cells) | GI50 ([10]; BGC-823 cells) | GI50 ([11]; PANC-1 cells) | GI50 ([13]; A549 cells) | GI50 ([14]; DU145 cells) | GI50 ([16]; MCF-7 cells) | GI50 ([18]; lncap cells) | SMILES | further results |
| --- | --- | --- | --- | --- | --- | --- | --- | --- | --- | --- | --- | --- | --- | --- | --- | --- | --- | --- | --- | --- | --- |
| no activity | 45 nM | 52 nM | 21 nM | 39 nM | 69 nM | 48 nM | 36 nM | 26 nM | 36 nM | 41 nM | – | – | – | – | – | – | – | – | – | C/C=C1\NC(=O)c2cc(F)cc(n2)CNC(=O)C[C@@H](/C=C/CCSC(C)=O)OC(=O)[C@@H](C)NC1=O [Compound 101] | GI50 [4]: 20 nM; GI50 [5]: 40 nM; GI50 [6]: 50 nM; GI50 [10]: 30 nM; GI50 [11]: 40 nM; GI50 [13]: 70 nM; GI50 [14]: 30 nM; GI50 [16]: 20 nM; GI50 [18]: 20 nM; GI50 [20]: 40 nM |
| – | 58 nM | 21 nM | 27 nM | 45 nM | 38 nM | 63 nM | 79 nM | 43 nM | 27 nM | 53 nM | 30 nM | 70 nM | 80 nM | 40 nM | 30 nM | 40 nM | 50 nM | 40 nM | 50 nM | C/C=C1\NC(=O)c2nc(ccc2SCC)CNC(=O)C[C@@H](/C=C/CCSC(=O)CCCCCC)OC(=O)[C@H](C(C)C)NC1=O [Compound 250] | IC50 (μM) HDAC7 (HDAC7): no activity; GI50 ([20]; HT1080 cells): 60 nM |
| – | 79 nM | 42 nM | 81 nM | 76 nM | 90 nM | 35 nM | 81 nM | 67 nM | 26 nM | 72 nM | 90 nM | 50 nM | 40 nM | 30 nM | 60 nM | 50 nM | 70 nM | 20 nM | 50 nM | C/C=C1\NC(=O)c2ccc(SCC)c(n2)CNC(=O)C[C@@H](/C=C/CCSC(=O)CCCCCC)OC(=O)[C@H](C(C)C)NC1=O [Compound 252] | IC50 (μM) HDAC7 (HDAC7): no activity; GI50 ([20]; HT1080 cells): 40 nM |
| no activity | 30 nM | 53 nM | 57 nM | 43 nM | 12 nM | 76 nM | 34 nM | 32 nM | 28 nM | 41 nM | 40 nM | 60 nM | 50 nM | 20 nM | 70 nM | 30 nM | 60 nM | 30 nM | 20 nM | C/C=C1\NC(=O)c2nc(ccc2SC)CNC(=O)C[C@@H](/C=C/CCSC(C)=O)OC(=O)[C@H](C(C)C)NC1=O [Compound 165] | GI50 ([20]; HT1080 cells): 60 nM |
| no activity | 93 nM | 37 nM | 43 nM | 93 nM | 53 nM | 53 nM | 69 nM | 42 nM | 37 nM | 81 nM | – | – | – | – | – | – | – | – | – | C/C=C1\NC(=O)c2ccc(F)c(n2)CNC(=O)C[C@@H](/C=C/CCSC(=O)CCCCCCC)OC(=O)[C@H](CC)NC1=O [Example 56] | GI50 [4]: 30 nM; GI50 [5]: 80 nM; GI50 [6]: 50 nM; GI50 [10]: 40 nM; GI50 [11]: 90 nM; GI50 [13]: 50 nM; GI50 [14]: 40 nM; GI50 [16]: 60 nM; GI50 [18]: 30 nM; GI50 [20]: 90 nM |

Reference: patent US10065990B2, “Cyclic peptide compound, and preparation method, pharmaceutical composition and use thereof” (HANGZHOU GUANYU BIO-MEDICAL CO., LTD, priority 2013, dated 2018)
